We go through 2 compounds from article PMC6331810, “Novel Coumarin-Containing Aminophosphonatesas Antitumor Agent: Synthesis, Cytotoxicity, DNA-Binding and Apoptosis Evaluation” (Molecules, 2015).

The subject of experiment [1] is human KB (human nasopharyngeal carcinoma cells). The experiment in a line: MTT cytotoxicity assay, human KB. In kind it is cell-based. As to conditions: Homo sapiens, light or radiation study, 48 h, no irradiation, mean ± SD of three experiments. The procedure: Cell Lines. The following in vitro human cancer cell lines were used: HCT-116 (Human colorectal cells), human KB (human nasopharyngeal carcinoma cells), MGC-803 (human lung adenocarcinoma cell line), HUVEC (Human Umbilical Vein Endothelial Cells). The cell lines (HCT-116, KB, MGC-803 and HUVEC) were purchased from the Cell Resource Center of Shanghai Institutes for Biological Sciences, the Academy of Sciences of China.
Cell Culture. HCT-116, human KB, MGC-803 and HUVEC cells were cultured in Dulbecco Modified Eagle Medium (DMEM; HyClone, Los Angeles, CA, USA), containing 4.0 mM L-Glutamine and 4500 mg/L Glucose, supplemented with 10% (v/v) foetalbovine serum (FBS; HyClone). The cell culturemedia was supplemented with penicillin/streptomycin at 100 Units/mL as adherent monolayers. Cell cultures were kept in a humidified incubator with 5% CO2 at 37 °C. Stock solutions were prepared in dimethyl sulfoxide (DMSO) and further dilutions were made with fresh culture medium. The concentration of DMSO in the final culture medium was 1%, which had no effect on the cell viability.
MTT Assay. Chemosensitivity was assessed using 3-(4,5-dimethylthiazol-2-yl)-2,5-diphenyl tetrazolium bromide (MTT) assay. Briefly, exponentially growing HCT-116 (3000–4000 cells/well), human KB (2000–3000 cells/well) and MGC 803 (2000–3000 cells/well) were seeded into 96-well plates and treated with indicated concentrations of samples for 48 h, and then […] of MTT (10 mg/mL) was added. After incubation for 4 h at 37 °C, the purple formazan crystals (i.e., a reduced form of MTT) generated from viable cells were dissolved by adding 100 μL DMSO in each well. The plates were swirled gently for 10 min to dissolve the precipitate, and quantified by measuring the optical density (OD) of the plates at a wavelength of 490 nm on plate reader (TECAN infinite M1000). Each concentration was repeated in three wells and the same experimental conditions were provided for all compounds and MTT analysis was repeated three times for each cell line.

The next experiment concerns CT-DNA. Nature of the experiment: Spectrofluorimetric titration with CT-DNA (Stern-Volmer and binding constants). The arrangement: species or system calf. Particulars: from F0/F-1 vs [DNA]; Tris-HCl buffer pH 7.2. The method, then:
The DNA binding properties of compounds 8a–8j were evaluated based on their affinity or interaction with CT-DNA, measured with fluorescence spectrometric titration.
The calibration curve for determination of DNA was constructed by adding different proportion of DNA to a 2.0 × 10^−3 M compound 8j solution (pH = 7.2 Tris-HCl buffer). […] [Q] is the concentration of quencher. KSV is the Stern-Volmer constant and KQ is the bimolecular quenching rate constant. τ0 is the lifetime of the fluorophore in the absence of quencher and for most biomolecules τ0 is about 10^−8 s. The Stern-Volmer constant, KSV, for compound 8j has been determined from the plot of F0/F-1 vs. [DNA] (see Figure 2) and found to be 5.11 × 10^2 M^−1.
When small molecules binding independently to a set of equivalent sites on a macromolecule, the equilibrium between free and bound molecules is given by the equation [28]: (2) lg (F0/F-1) = lgKb + nlg[Q] where Kb and n are the binding constant and the number of binding sites, respectively, which could be got from the curve of lg(F0/F-1) vs. lg[Q]. The plot of lg(F0/F-1) vs. lg[DNA] has been shown in Figure 3 for compound 8j and indicates a simple binding process for the compound.
All fluorescence experiments were carried out on a Perkin-Elmer LS50B luminescence spectrometer. Fluorescence spectra were measured at rt using quartz cells of 1cm path. To the solutions of the drugs (2.0 × 10^−3 M) in 2.5 mL Tris-HCl buffer (pH = 7.2) were added aliquots of CT-DNA (2.0 × 10^−3 M) solution containing drugs (2.0 × 10^−3 M) in 2.5 mL Tris-HCl buffer (pH = 7.2). This operation ensured that the concentration of CT-DNA increased gradually from 0 to 360 µM, while the concentrations of drugs were kept constant. The mixing was achieved by stirring for 10min. Then, the corresponding fluorescence spectra were measured (ex 325 nm, ex/em 1.5 nm/1.5 nm). Binding constants were derived from the modified.

Experiment [2] has as its system Bax, Bcl-2, cytochrome c, caspase-9 and caspase-3 in HCT-116 cells. Nature of the experiment: Western blot of apoptosis-related proteins. In kind it is cell-based, human. An excerpt: To confirm the molecular mechanisms involved in the observed apoptosis alterations, we investigated the effects of compound 8j on the expression of proteins important for mitochondria mediated apoptosis. Apoptosis occurs through two different pathways, that is the intrinsic and extrinsic pathways. Intrinsic pathway involves mitochondria that play a pivotal role in apoptosis, whereas extrinsic pathway is mediated by cell death receptors such as Fas, TNF α after receiving the death signal. It is well-known that the intrinsic pathway is regulated by the Bcl-2 family of pro- and anti- apoptotic proteins, which stimulate the permeabilization of the mitochondrial outer membrane and cytochrome c released into the cytosol, promoting in the activation of the caspase cascade and the induction of apoptotic cell death. […] Then, the roles of important caspases (caspase-9 and caspase-3) were investigated. […] Thus, compound 8j induced HCT-116 cells apoptosis might decrease the activation of Bcl-2 and stimulate its downstream proteins which are associated with the mitochondria-dependent apoptotic pathway.
Figure 7 Effect of compound 8j on cytochrome c release and levels of Bcl-2, Bax, Caspase-9 and Caspase-3. Equal amount of protein was loaded on SDS-PAGE gel for western blot analysis as described in experimental section. β-actin was used as an internal control.
A general note: In western blotting, separated proteins are transferred to a membrane and probed.

Setting [3] is: HCT-116, vs control cells, dose-dependent.

The IC50 is the point on the concentration scale where inhibition reaches its midpoint. A high value points to lower potency. Consider `CCOP(=O)(OCC)C(C)(NC(=O)CCOc1ccc2c(C)cc(=O)oc2c1)c1ccccc1` (centres unmarked) [Compound 8j, Diethyl 1-(3-(4-methyl-2-oxo-2H-chromen-7-yloxy)propanamido)-1-phenylethylphosphonate], for which, in experiment [1], half-maximal inhibition (IC50) was put at 80 nM. Besides, the “KSV (Stern-Volmer constant)” value with CT-DNA was found to be 511 M⁻¹. Further, the Cytochrome c release entry in experiment [2] (HCT-116, cytosol) is “accumulation of cytochrome c in the cytosol”. Besides, in experiment [2] (HCT-116, vs control), the “Levels of caspase-3 protein” value is “marked increase” and the “Levels of caspase-9 protein” value is reported as “marked increase”. In experiment [2] (setting [3]), the “Expression of Bcl-2” value is listed as “decrease” and the “Levels of Bax” value is on record as “significant increase”.
For `CCOP(=O)(OCC)C(NC(=O)CCOc1ccc2c(C)cc(=O)oc2c1)c1cccc(Br)c1` (centres unmarked) [Compound 8f, Diethyl(3-(4-methyl-2-oxo-2H-chromen-7-yloxy)propanamido)(3-bromophenyl)methylphospho-nate], the “KSV (Stern-Volmer constant)” value in the experiment on CT-DNA turned out to be 412 M⁻¹.
